Results from publication PMC10534827 (Pharmaceuticals, 2023).

Columns and labels:
[1] = test system: SH-SY5Y cells; experiment: MTT cytotoxicity, SH-SY5Y; format: cell-based, human; settings: Homo sapiens, SH-SY5Y; MTT, 72 h exposure; read-out: SH-SY5Y IC50
[2] = target: T1, Acetylcholinesterase from Electrophorus electricus (Electrophorus electricus, UniProt O42275); experiment: biochemical; format: biochemical; settings: for inhibition at 1000 µM: 1 mM solution of the tested compound, read-out: Activity [%] (inhibition percentage of AChE); for IC50: mean ± SD of three experiments, read-out: AChE IC50
T1 construct: purchased Sigma-Aldrich, Hamburg, Germany
Method: (§1) AChE and BChE inhibitory activity was measured using the microplate assay described by Ellman et al. [68] with the modifications added by López et al. [36]. The compounds were tested at concentrations between 10^−3 and 10^−8 M. First, all compounds were dissolved in 1% DMSO in a concentration of 1 mg/mL.
(§2) Incubation of the plates was performed at room temperature for 30 min. Then, 100 μL of substrate solution were added to start the enzymatic reaction. […] Enzyme activity was calculated as an inhibition percentage compared to an assay including buffer instead of an inhibitor. […] All data were analyzed with the software package Prism 3 (Graph Pad Inc., San Diego, CA, USA).

[3] = Ferric reducing antioxidant power (FRAP); settings: 150 μL of 5 mM compound, 30 min, 593 nm, Trolox equivalent
[4] = test system: CCL-1 cells; experiment: MTT cytotoxicity, CCL-1 normal fibroblasts; format: cell-based, murine; settings: Mus musculus, Fibroblast; MTT, 72 h exposure; read-out: CCL-1 IC50
[5] = PAMPA-BBB permeability; format: in vitro ADME; settings: experimentally measured BBB permeability
Excerpt: At the same time, they needed to fulfill the requirement for good BBB permeation in order to achieve sufficient brain exposure. Although transport across the BBB is quite a complex phenomenon, passive diffusion is still the primary route for exogenous substances to access that target. So, the selected compounds were subjected to an in vitro PAMPA-BBB assay, relying on the capacity of the method in distinguishing the candidates with good BBB passive permeabilities. […].
The blood–brain barrier permeabilities were measured by PAMPA Permeability Analyzer (pIONInc, Billerica, MA, USA). The tested compounds and reference standards were prepared as 10 mM stock solutions in DMSO and further diluted in Prisma HT buffer pH 7.4. The experiment followed the BBB Protocol: 200 μL sample’s aliquots in the donor compartment, Brain Sink Buffer aliquots (200 μL) in the acceptor wells, BBB-1 lipid for coating the permeation membranes, “sandwich” assembly with the acceptor plate on top of the donor one, and incubation at temperature 25 °C for 4 h under humidity control without stirring. For permeability assessment, UV spectra of the blank, reference, donor, and acceptor plates were collected at wavelength 250–500 nm. […]. Samples were analyzed in triplicate and average values were reported. […]. Theophylline, corticosterone, and propranolol HCl were used as reference standards to control the quality and consistency of the BBB permeability experiment.

[6] = target: T2, butyrylcholinesterase from equine serum (Equus caballus, UniProt P81908); experiment: biochemical; settings: for inhibition at 1000 µM: 1 mM solution of the tested compound, read-out: Activity [%] (inhibition percentage of BChE); for SI BChE: IC50(AChE)/IC50(BChE); for IC50: mean ± SD of three experiments, read-out: BChE IC50
T2 construct: butyrylcholinesterase from equine serum; purchased Sigma-Aldrich, Hamburg, Germany; host or cells: equine serum
Method: as §1, §2

[7] = test system: Neuro-2a cells; experiment: MTT cytotoxicity, Neuro-2a; format: cell-based, murine; settings: Mus musculus, N2a; MTT, 72 h exposure; read-out: Neuro-2a IC50
[8] = DPPH radical scavenging activity; settings: 300 μL of 5 mM compound in MeOH, 30 min, 517 nm
Method: The DPPH (2,2-diphenyl-1-picryl-hydrazyl-hydrate) free radical scavenging activity method is based on the neutralization of the DPPH radical by an antioxidant.
Free radical scavenging activity was measured using DPPH method [69, 70] with slight modification. Here, 300 μL of 5 mM solutions of tested compounds in MeOH were added to 2 mL methanolic solution of DPPH (2 mg/mL). […] Results were evaluated as percentage scavenging of radical:DPPH radical scavenging activity (%) = ((Abscontr. − Abssample)/Abscontr.) ×100, where Abscontr. is the absorbance of DPPH radical with 300 μL MeOH, Abssample is the absorbance of DPPH radical solution mixed with sample. BHT was used as positive control.

[9] = Lipid peroxidation in linoleic acid system, FTC method; settings: 10 mM compound, 500 nm
Method: The antioxidant activity of studied compounds against lipid peroxidation was measured through ammonium thiocyanate assay as described by Takao et al. [66] with some modifications. […] A 10 μL aliquot of the reaction solution was then added to 200 μL of 70% (v/v) ethanol and 10 μL of 30% (w/v) ammonium thiocyanate. […] Aliquots were assayed every 24 h until the day after the absorbance of the control solution (without compound) reached maximum value. BHT (10 mM) was used as positive control.

[10] = ABTS radical scavenging assay; settings: 734 nm after 5 min
Method: These compounds were also tested for their antioxidant activities by using the ABTS [2,2′-azinobis (3-ethylbenzothiazoline-6-sulfonic acid)] cation radical decolorization method (Table 4). The BHT [41] was used for comparison. The ABTS cation radical is produced by oxidation of the ABTS molecule with strong oxidizing agents, such as potassium persulfate in water.
For ABTS assay, the procedure followed the method of Arnao et al. [71] with some modifications. […] The working solution was then prepared by mixing the two stock solutions in equal quantities and allowing them to react for 14 h at room temperature in the dark. […] A fresh ABTS solution was prepared for each assay. […] The ABTS scavenging capacity of the compound was calculated as follows:ABTS radical scavenging activity (%) = ((Abscontr. − Abssample)/Abscontr.) ×100, where Abscontr. is the absorbance of DPPH radical with 300 μL MeOH, Abssample is the absorbance of DPPH radical solution mixed with the sample. […] BHT was used as positive control.

T1 sequence (O42275 24-633): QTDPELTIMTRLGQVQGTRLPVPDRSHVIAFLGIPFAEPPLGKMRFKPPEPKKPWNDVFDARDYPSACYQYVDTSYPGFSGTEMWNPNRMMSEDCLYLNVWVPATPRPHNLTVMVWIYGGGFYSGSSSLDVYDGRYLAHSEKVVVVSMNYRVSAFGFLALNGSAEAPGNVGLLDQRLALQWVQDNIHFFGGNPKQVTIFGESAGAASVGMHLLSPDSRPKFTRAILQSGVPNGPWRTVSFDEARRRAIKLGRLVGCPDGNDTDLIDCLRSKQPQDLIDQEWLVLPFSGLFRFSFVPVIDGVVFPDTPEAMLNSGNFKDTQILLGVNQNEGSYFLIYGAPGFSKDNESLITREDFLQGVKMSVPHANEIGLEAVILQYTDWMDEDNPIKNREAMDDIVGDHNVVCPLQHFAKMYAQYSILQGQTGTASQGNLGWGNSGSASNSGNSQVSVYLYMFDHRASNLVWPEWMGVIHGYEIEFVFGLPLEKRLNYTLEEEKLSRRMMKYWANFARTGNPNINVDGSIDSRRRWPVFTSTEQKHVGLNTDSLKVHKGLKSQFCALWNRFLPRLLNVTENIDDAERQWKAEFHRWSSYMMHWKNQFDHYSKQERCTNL
T2 sequence (P81908 whole entry): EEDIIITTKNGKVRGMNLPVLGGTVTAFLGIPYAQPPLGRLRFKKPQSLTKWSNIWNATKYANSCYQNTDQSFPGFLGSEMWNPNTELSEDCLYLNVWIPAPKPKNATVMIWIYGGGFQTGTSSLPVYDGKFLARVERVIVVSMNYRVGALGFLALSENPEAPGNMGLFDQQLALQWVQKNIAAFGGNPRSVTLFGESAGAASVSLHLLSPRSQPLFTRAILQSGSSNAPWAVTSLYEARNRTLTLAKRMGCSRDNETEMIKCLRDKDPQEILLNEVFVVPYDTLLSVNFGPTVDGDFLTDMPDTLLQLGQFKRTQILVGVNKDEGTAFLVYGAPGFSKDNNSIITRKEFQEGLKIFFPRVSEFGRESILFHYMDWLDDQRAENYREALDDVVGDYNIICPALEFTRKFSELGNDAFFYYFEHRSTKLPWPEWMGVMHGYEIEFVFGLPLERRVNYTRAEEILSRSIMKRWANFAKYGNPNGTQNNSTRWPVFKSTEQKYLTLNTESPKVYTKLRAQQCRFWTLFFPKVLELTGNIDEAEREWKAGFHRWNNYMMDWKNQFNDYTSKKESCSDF

O=C(Cc1c[nH]c2ccccc12)N/N=C/C1CCN(Cc2ccccc2)CC1 [3a, N’-[(E)-(1-benzylpiperidin-4-yl)methylidene]-2-(1H-indol-3-yl)acetohydrazide]
IC50 [1]: 129 ± 7.5 µM | inhibition at 1000 µM [2]: 78.9% | IC50 [2]: 76.5 ± 3.04 µM | FRAP [3]: 15.42 ± 0.74 μMTE | IC50 [4]: 138 ± 9.8 µM | PAMPA BBB −logPe [5]: 4.420 | inhibition at 1000 µM [6]: 80.4% | SI BChE [6]: 1.35 | IC50 [6]: 56.5 ± 0.2 µM | IC50 [7]: > 300 µM | DPPH Activity [8]: 5.74 ± 0.39% | Absorbance Day 1 [9]: 0.87 ± 0.03 | Absorbance Day 2 [9]: 0.87 ± 0.08 | Absorbance Day 3 [9]: 0.72 ± 0.07 | Absorbance Day 4 [9]: 0.72 ± 0.05 | Absorbance Day 5 [9]: 0.71 ± 0.08

COc1ccc(C(=O)N/N=C/C2CCN(Cc3ccccc3)CC2)cc1 [3d, N’-[(E)-(1-benzylpiperidin-4-yl)methylidene]-4-methoxybenzohydrazide]
IC50 [1]: 122 ± 9.2 µM | inhibition at 1000 µM [2]: 81.2% | SI AChE ([2]; IC50(BChE)/IC50(AChE)): 20.19 | IC50 [2]: 9.77 ± 0.76 µM | FRAP [3]: 15.87 ± 1.41 μMTE | IC50 [4]: 220 µM | inhibition at 1000 µM [6]: 72.9% | IC50 [6]: 197 ± 18.7 µM | IC50 [7]: > 300 µM | DPPH Activity [8]: 40.80 ± 3.10% | ABTS Activity [10]: ≥100% | IC50 [10]: 1050 ± 40 µM | Absorbance Day 1 [9]: 0.85 ± 0.02 | Absorbance Day 2 [9]: 0.86 ± 0.02 | Absorbance Day 3 [9]: 0.88 ± 0.05 | Absorbance Day 4 [9]: 0.85 ± 0.07 | Absorbance Day 5 [9]: 0.84 ± 0.09

COc1cc(/C=N/NC(=O)Cc2c[nH]c3ccccc23)ccc1O [3q, N’-[(E)-(4-hydroxy-3-methoxyphenyl)methylidene]-2-(1H-indol-3-yl)acetohydrazide]
IC50 [1]: 141 ± 8.8 µM | inhibition at 1000 µM [2]: 12.8% | IC50 [2]: > 1000 µM | FRAP [3]: 15.60 ± 0.90 μMTE | IC50 [4]: 170 ± 14 µM | inhibition at 1000 µM [6]: 13.9% | IC50 [6]: > 1000 µM | IC50 [7]: 254 ± 13.7 µM | DPPH Activity [8]: 20.40 ± 0.83% | ABTS Activity [10]: ≥100% | IC50 [10]: 2380 ± 70 µM | Absorbance Day 1 [9]: 0.76 ± 0.03 | Absorbance Day 2 [9]: 0.77 ± 0.08 | Absorbance Day 3 [9]: 0.79 ± 0.03 | Absorbance Day 4 [9]: 0.84 ± 0.05 | Absorbance Day 5 [9]: 0.91 ± 0.09

Cc1ccc(S(=O)(=O)N/N=C/c2cn(Cc3ccccc3)c3ccccc23)cc1 [5g, N’-[(E)-(1-benzyl-1H-indol-3-yl)methylidene]-4-methylbenzenesulfonohydrazide]
IC50 [1]: 92.1 ± 9.3 µM | inhibition at 1000 µM [2]: 2.18% | IC50 [2]: > 1000 µM | FRAP [3]: 15.87 ± 1.13 μMTE | IC50 [4]: 50.7 ± 3.6 µM | inhibition at 1000 µM [6]: 40.6% | IC50 [6]: > 1000 µM | IC50 [7]: 135 ± 10.9 µM | DPPH Activity [8]: 45.72 ± 1.38% | ABTS Activity [10]: ≥100% | IC50 [10]: 2080 ± 100 µM | Absorbance Day 1 [9]: 0.82 ± 0.04 | Absorbance Day 2 [9]: 0.87 ± 0.09 | Absorbance Day 3 [9]: 0.88 ± 0.09 | Absorbance Day 4 [9]: 0.87 ± 0.05 | Absorbance Day 5 [9]: 0.88 ± 0.03

COc1ccc(/C=N/NS(=O)(=O)c2ccc(C)cc2)cc1OC [5h, N’-[(E)-(3,4-dimethoxyphenyl)methylidene]-4-methylbenzenesulfonohydrazide]
IC50 [1]: 42 ± 5.2 µM | inhibition at 1000 µM [2]: 10.5% | IC50 [2]: > 1000 µM | FRAP [3]: 20.37 ± 0.90 μMTE | IC50 [4]: 160 µM | inhibition at 1000 µM [6]: 26.6 ± 5.11% | IC50 [6]: > 1000 µM | IC50 [7]: 136 ± 12.6 µM | DPPH Activity [8]: 16.94 ± 1.09% | ABTS Activity [10]: ≥100% | IC50 [10]: 1850 ± 30 µM | Absorbance Day 1 [9]: 0.70 ± 0.09 | Absorbance Day 2 [9]: 0.82 ± 0.06 | Absorbance Day 3 [9]: 0.83 ± 0.05 | Absorbance Day 4 [9]: 0.83 ± 0.06 | Absorbance Day 5 [9]: 0.80 ± 0.05

COc1ccc(/C=N/NS(=O)(=O)c2ccccc2)cc1OC [5i, N’-[(E)-(3,4-dimethoxyphenyl)methylidene]benzenesulfonohydrazide]
IC50 [1]: 40.3 ± 6.1 µM | inhibition at 1000 µM [2]: 2.63% | IC50 [2]: > 1000 µM | FRAP [3]: 14.67 ± 0.81 μMTE | IC50 [4]: 147 µM | inhibition at 1000 µM [6]: 7.67 ± 0.99% | IC50 [6]: > 1000 µM | IC50 [7]: 109 ± 5.1 µM | DPPH Activity [8]: 16.21 ± 3.01% | ABTS Activity [10]: 65.29 ± 2.34% | IC50 [10]: 3740 ± 50 µM | Absorbance Day 1 [9]: 0.81 ± 0.08 | Absorbance Day 2 [9]: 0.83 ± 0.01 | Absorbance Day 3 [9]: 0.83 ± 0.09 | Absorbance Day 4 [9]: 0.81 ± 0.02 | Absorbance Day 5 [9]: 0.83 ± 0.03

Cc1ccc(S(=O)(=O)N/N=C/c2c[nH]c3ccc(OCc4ccccc4)cc23)cc1 [5j, N’-{(E)-[5-(benzyloxy)-1H-indol-3-yl]methylidene}-4-methylbenzenesulfonohydrazide]
IC50 [1]: 33.1 ± 0.1 µM | inhibition at 1000 µM [2]: 13.2% | IC50 [2]: > 1000 µM | FRAP [3]: 18.59 ± 2.28 μMTE | IC50 [4]: 41.2 ± 4.2 µM | inhibition at 1000 µM [6]: 56.9% | SI BChE [6]: 1.15 | IC50 [6]: 865 ± 159 µM | IC50 [7]: 65.4 ± 0.1 µM | ABTS Activity [10]: ≥100% | IC50 [10]: 2180 ± 160 µM | Absorbance Day 1 [9]: 0.83 ± 0.01 | Absorbance Day 2 [9]: 0.83 ± 0.08 | Absorbance Day 3 [9]: 0.84 ± 0.02 | Absorbance Day 4 [9]: 0.83 ± 0.05 | Absorbance Day 5 [9]: 0.82 ± 0.02

O=S(=O)(N/N=C/c1c[nH]c2ccc(OCc3ccccc3)cc12)c1ccccc1 [5k]
IC50 [1]: 135 ± 14 µM | inhibition at 1000 µM [2]: 35.4% | IC50 [2]: > 1000 µM | FRAP [3]: 22.52 ± 1.29 μMTE | IC50 [4]: 321 ± 16.2 µM | inhibition at 1000 µM [6]: 4.97% | IC50 [6]: > 1000 µM | IC50 [7]: 77.7 ± 6.9 µM | DPPH Activity [8]: 47.18 ± 1.14% | ABTS Activity [10]: ≥100% | IC50 [10]: 2570 ± 130 µM | Absorbance Day 1 [9]: 0.80 ± 0.04 | Absorbance Day 2 [9]: 0.80 ± 0.09 | Absorbance Day 3 [9]: 0.83 ± 0.05 | Absorbance Day 4 [9]: 0.84 ± 0.08 | Absorbance Day 5 [9]: 0.87 ± 0.09

Cc1cc(C(C)(C)C)c(O)c(C(C)(C)C)c1 [BHT, butylated hydroxytoluene, reference compound]
FRAP [3]: 15.79 ± 0.58 μMTE | DPPH Activity [8]: 7.78 ± 0.77% | ABTS Activity [10]: 29.53 ± 1.65% | IC50 [10]: > 5000 µM | Absorbance Day 1 [9]: 0.74 ± 0.07 | Absorbance Day 2 [9]: 0.77 ± 0.03 | Absorbance Day 3 [9]: 0.78 ± 0.06 | Absorbance Day 4 [9]: 0.80 ± 0.06 | Absorbance Day 5 [9]: 0.81 ± 0.09
